Data: PubChem BioAssay AID342 (DTP/NCI, 2004)
Values joined by “and” are separate entries in the source; they are usually repeats but may differ in a detail not shown here. Identical values can stand only once.

Tested on: Swiss mice, Sarcoma 180 sc, mean tumor weight T/C
Assay: NCI In Vivo Anticancer Drug Screen. Data for tumor model Sarcoma 180 (subcutaneous) in Swiss mice
Conditions: endpoint: mean tumor weight, higher = larger tumour
Protocol: The antitumor activity of compounds was measured in mice bearing transplantable tumors. Survival or tumor size were measured and the results are expressed as the measurement made in the treated group (T) divided by the measurement made in the vehicle treated control group (C). The tumor model used in this assay is Sarcoma 180 (subcutaneous) in Swiss mice

[1] = dose: 250.0 mg/kg/injection, schedule: Q01DX007 (sc), vehicle: steriod suspending solution
[2] = dose: 125.0 mg/kg/injection, schedule: Q01DX007 (ip), vehicle: carboxymethylcellulose (CMC)
[3] = dose: 62.0 mg/kg/injection, schedule: Q01DX007 (ip), vehicle: carboxymethylcellulose (CMC)
[4] = dose: 250.0 mg/kg/injection, schedule: Q01DX007 (ip), vehicle: carboxymethylcellulose (CMC)
[5] = dose: 1.0 mg/kg/injection, schedule: Q01DX007 (ip), vehicle: carboxymethylcellulose (CMC)
[6] = dose: 40.0 mg/kg/injection, schedule: Q01DX007 (ip), vehicle: carboxymethylcellulose (CMC)
[7] = dose: 500.0 mg/kg/injection, schedule: Q01DX007 (ip), vehicle: carboxymethylcellulose (CMC)

CS(=O)(=O)OCCCl
T/C (dose: 6.67 mg/kg/injection, schedule: Q#A X014 (ip), vehicle: carboxymethylcellulose (CMC)): 92 % of control
T/C (dose: 13.35 mg/kg/injection, schedule: Q01DX007 (ip), vehicle: carboxymethylcellulose (CMC)): 117 % of control
T/C (dose: 13.35 mg/kg/injection, schedule: Q#A X014 (ip), vehicle: carboxymethylcellulose (CMC)): 95 % of control
T/C (dose: 26.7 mg/kg/injection, schedule: Q01DX007 (ip), vehicle: carboxymethylcellulose (CMC)): 106 % of control
T/C (dose: 26.7 mg/kg/injection, schedule: Q#A X014 (ip), vehicle: carboxymethylcellulose (CMC)): 86 % of control
T/C (dose: 53.4 mg/kg/injection, schedule: Q01DX007 (ip), vehicle: carboxymethylcellulose (CMC)): 100 % of control
T/C (dose: 106.8 mg/kg/injection, schedule: Q01DX007 (ip), vehicle: carboxymethylcellulose (CMC)): 94 % of control

C[C@@H]1CC2=CC(=O)C=C[C@]2(C)[C@H]2CC[C@@]3(C)[C@@H](CC[C@]3(C)O)[C@H]12
T/C (dose: 111.0 mg/kg/injection, schedule: Q01DX007 (sc), vehicle: steriod suspending solution): 61 % of control and 72 % of control
T/C (dose: 167.0 mg/kg/injection, schedule: Q01DX007 (sc), vehicle: steriod suspending solution): 43 % of control and 62 % of control
T/C [1]: 57 % of control and 76 % of control
T/C (dose: 375.0 mg/kg/injection, schedule: Q01DX007 (sc), vehicle: steriod suspending solution): 38 % of control and 42 % of control and 55 % of control
T/C (dose: 750.0 mg/kg/injection, schedule: Q01DX007 (sc), vehicle: steriod suspending solution): 47 % of control and 69 % of control

O=C(O)CCC(=O)CCl
T/C (dose: 6.2 mg/kg/injection, schedule: Q01DX007 (ip), vehicle: saline): 76 % of control
T/C (dose: 9.3 mg/kg/injection, schedule: Q01DX007 (ip), vehicle: saline): 57 % of control
T/C (dose: 14.0 mg/kg/injection, schedule: Q01DX007 (ip), vehicle: saline): 57 % of control
T/C (dose: 21.0 mg/kg/injection, schedule: Q01DX007 (ip), vehicle: saline): 46 % of control and 55 % of control
T/C (dose: 30.0 mg/kg/injection, schedule: Q01DX007 (ip), vehicle: saline): 31 % of control

N#Cc1cn(C2OC(CO)C(O)C2O)c2ncnc(N)c12 (centres undefined)
T/C (dose: 0.05 mg/kg/injection, schedule: Q#A X014 (ip), vehicle: carboxymethylcellulose (CMC)): 79 % of control

C[C@]12CC[C@H](O)C[C@@H]1CC[C@@H]1[C@@H]2C(=O)C[C@]2(C)C3=CC(=O)O[C@H]3C[C@@H]12
T/C (dose: 5.0 mg/kg/injection, schedule: Q01DX007 (sc), vehicle: steriod suspending solution): 103 % of control
T/C (dose: 10.0 mg/kg/injection, schedule: Q01DX007 (sc), vehicle: steriod suspending solution): 97 % of control
T/C (dose: 40.0 mg/kg/injection, schedule: Q01DX007 (sc), vehicle: steriod suspending solution): 95 % of control

COC(=O)C1C2CC3c4[nH]c5cc(OC)ccc5c4CCN3CC2CC(OC(=O)c2cc(OC)c(OC)c(OC)c2)C1OC (centres undefined)
T/C (dose: 0.5 mg/kg/injection, schedule: Q01DX007 (ip), vehicle: saline): 155 % of control
T/C (dose: 1.0 mg/kg/injection, schedule: Q01DX007 (ip), vehicle: saline): 85 % of control
T/C (dose: 2.0 mg/kg/injection, schedule: Q01DX007 (ip), vehicle: saline): 62 % of control
T/C (dose: 4.0 mg/kg/injection, schedule: Q01DX007 (ip), vehicle: saline): 83 % of control and 85 % of control
T/C (dose: 8.0 mg/kg/injection, schedule: Q01DX007 (ip), vehicle: saline): 115 % of control
T/C (dose: 16.0 mg/kg/injection, schedule: Q01DX007 (ip), vehicle: saline): 92 % of control
T/C (dose: 32.0 mg/kg/injection, schedule: Q01DX007 (ip), vehicle: saline): 90 % of control

Nc1nc(SCc2ccccc2)c2ncn(CCCl)c2n1
T/C (dose: 56.0 mg/kg/injection, schedule: Q01DX007 (ip), vehicle: carboxymethylcellulose (CMC)): 36 % of control and 55 % of control
T/C (dose: 83.0 mg/kg/injection, schedule: Q01DX007 (ip), vehicle: carboxymethylcellulose (CMC)): 35 % of control and 41 % of control
T/C [2]: 12 % of control and 18 % of control

CCOC(=O)c1ccc(N=NN(C)C)cc1
T/C [3]: 74 % of control
T/C [2]: 49 % of control
T/C (dose: 187.0 mg/kg/injection, schedule: Q01DX007 (ip), vehicle: carboxymethylcellulose (CMC)): 23 % of control
T/C [4]: 12 % of control

CN1CCCC1c1cccnc1 (centres undefined)
T/C (dose: 0.25 mg/kg/injection, schedule: Q01DX007 (ip), vehicle: carboxymethylcellulose (CMC)): 76 % of control
T/C (dose: 0.5 mg/kg/injection, schedule: Q01DX007 (ip), vehicle: carboxymethylcellulose (CMC)): 105 % of control
T/C [5]: 66 % of control

O=C(Nc1ccc(C2=NCCCN2)cc1)c1ccc(C(=O)Nc2ccc(C3=NCCCN3)cc2)cc1
T/C (dose: 0.2 mg/kg/injection, schedule: Q01DX007 (ip), vehicle: water): 83 % of control
T/C (dose: 0.4 mg/kg/injection, schedule: Q01DX007 (ip), vehicle: water): 106 % of control
T/C (dose: 0.8 mg/kg/injection, schedule: Q01DX007 (ip), vehicle: water): 88 % of control
T/C [5]: 80 % of control
T/C (dose: 1.6 mg/kg/injection, schedule: Q01DX007 (ip), vehicle: water): 90 % of control
T/C (dose: 2.0 mg/kg/injection, schedule: Q01DX007 (ip), vehicle: carboxymethylcellulose (CMC)): 93 % of control
T/C (dose: 8.0 mg/kg/injection, schedule: Q01DX007 (ip), vehicle: carboxymethylcellulose (CMC)): 104 % of control
T/C (dose: 16.0 mg/kg/injection, schedule: Q01DX007 (ip), vehicle: carboxymethylcellulose (CMC)): 25 % of control
T/C (dose: 32.0 mg/kg/injection, schedule: Q01DX007 (ip), vehicle: carboxymethylcellulose (CMC)): 14 % of control

Cc1nc2nc(N)nc(N)c2nc1C
T/C (dose: 10.0 mg/kg/injection, schedule: Q01DX007 (ip), vehicle: carboxymethylcellulose (CMC)): 89 % of control
T/C (dose: 11.46 mg/kg/injection, schedule: Q01DX007 (ip), vehicle: carboxymethylcellulose (CMC)): 106 % of control
T/C (dose: 20.0 mg/kg/injection, schedule: Q01DX007 (ip), vehicle: carboxymethylcellulose (CMC)): 77 % of control
T/C (dose: 22.92 mg/kg/injection, schedule: Q01DX007 (ip), vehicle: carboxymethylcellulose (CMC)): 77 % of control
T/C [6]: 68 % of control
T/C (dose: 45.85 mg/kg/injection, schedule: Q01DX007 (ip), vehicle: carboxymethylcellulose (CMC)): 86 % of control
T/C (dose: 80.0 mg/kg/injection, schedule: Q01DX007 (ip), vehicle: carboxymethylcellulose (CMC)): 81 % of control
T/C (dose: 91.7 mg/kg/injection, schedule: Q01DX007 (ip), vehicle: carboxymethylcellulose (CMC)): 51 % of control

O=S(c1ccc(Cl)cc1)c1ccc(Cl)cc1
T/C [4]: 105 % of control
T/C [7]: 96 % of control

ON=C1c2cc(Cl)ccc2-c2ccc(Cl)cc21
T/C (dose: 26.6 mg/kg/injection, schedule: Q01DX007 (ip), vehicle: carboxymethylcellulose (CMC)): 77 % of control
T/C [6]: 71 % of control
T/C (dose: 60.0 mg/kg/injection, schedule: Q01DX007 (ip), vehicle: carboxymethylcellulose (CMC)): 61 % of control
T/C (dose: 90.0 mg/kg/injection, schedule: Q01DX007 (ip), vehicle: carboxymethylcellulose (CMC)): 57 % of control

CNCc1ccccc1
T/C (dose: 146.5 mg/kg/injection, schedule: Q01DX007 (ip), vehicle: carboxymethylcellulose (CMC)): 91 % of control

COC(=O)c1ccccc1NC(c1ccccn1)c1ccc2cccnc2c1O (centres undefined)
T/C [3]: 115 % of control
T/C [2]: 104 % of control
T/C [4]: 88 % of control
T/C [7]: 88 % of control

CCC(=O)O[C@H]1CC[C@H]2[C@@H]3CCC4=CC(=O)CC[C@]4(C)[C@H]3CC[C@]12C
T/C (dose: 90.0 mg/kg/injection, schedule: Q01DX007 (sc), vehicle: steriod suspending solution): 102 % of control
T/C (dose: 125.0 mg/kg/injection, schedule: Q01DX007 (sc), vehicle: steriod suspending solution): 82 % of control
T/C (dose: 180.0 mg/kg/injection, schedule: Q01DX007 (sc), vehicle: steriod suspending solution): 104 % of control
T/C [1]: 102 % of control
T/C (dose: 360.0 mg/kg/injection, schedule: Q01DX007 (sc), vehicle: steriod suspending solution): 107 % of control
T/C (dose: 500.0 mg/kg/injection, schedule: Q01DX007 (sc), vehicle: steriod suspending solution): 60 % of control
T/C (dose: 720.0 mg/kg/injection, schedule: Q01DX007 (sc), vehicle: steriod suspending solution): 69 % of control
T/C (dose: 1000.0 mg/kg/injection, schedule: Q01DX007 (sc), vehicle: steriod suspending solution): 64 % of control
